Experimental data as given in patent publication US20150329883A1 (Samsung Electronics Co., Ltd., priority 2014, published 2015).
Values after ≈ are worked out from the molar mass of the structure shown. Values joined by “and” are separate entries in the source; they are usually repeats but may differ in a detail not shown here. Equal entries are not always repeated. Where two headings read alike, the source gives them in different places.

Key:
[1] = test system: S003/pGEX4-NCgl0275 strain; assay: microbe, parasite or virus in culture
Source text: A strain that overexpresses the fourteen SRGs was obtained by cloning the SRGs to Xhol/BamHI restriction site of a pGEX-4 vector to be expressed under an influence of a Ptuf promoter as described in “2. Preparation of pGEX_Ptuf::Ncgl1853, Ncgl1855, Ncgl2988, Ncgl2425, Ncgl2404, Ncgl0368, Ncgl2877, Ncgl0275, Ncgl2359, Ncgl1525, Ncgl0976, Ncgl2673, Ncgl2297, and Ncgl1524 vector” under “Material and Method”, and then introducing each of the vectors thus obtained to a Corynebacterium glutamicum S003 strain.

[2] = test system: Corynebacterium S003 strain (Δldh, Δpta-ackA, ΔpoxB, and ΔactA); assay: microbe, parasite or virus in culture; details: for IC50: Corynebacterium
Protocol: In particular, for a seed culture, the strain was streaked on an active plate including agar 5 g/L of yeast extract, 10 g/L of beef extract, 10 g/L of polypeptone, 5 g/L of NaCl, and 20 g/L of agar, and then cultured at a temperature of 30° C. for about 48 hours. A single colony obtained therefrom was inoculated in 5 ml of a BHIS medium (including 37 g/L of brain-heart infusion agar, 91 g/L of D-sorbitol, pH 7.0) and grown overnight at a temperature of 30° C.
1 ml of the obtained culture solution was inoculated in a 25 ml of BHIS in a 250 ml flask and grown until an OD600 value was 5.0. The culture solution was centrifuged, a supernatant thereof was removed to collect the microorganism only, and the microorganism was washed with CGXII minimal medium. The CGXII minimal medium includes 20 g/L of (NH4)2SO4, 5 g/L of urea, 1 g/L of KH2PO4, 1 g/L of K2HPO4, 0.25 g/L of MgSO4.7H2O, 10 mg/L of CaCl2, 10 mg/L of FeSO4.7H2O, 0.1 mg/L of MnSO4.H2O, 1 mg/L of ZnSO4.7H2O, 0.2 mg/L of CuSO4.5H2O, […], 0.2 mg/L of biotin, 42 g/L of 3-morpholinopropanesulfonic acid (MOPS), and 4% (w/v) of glucose.

[3] = test system: Corynebacterium glutamicum S003 strain; details: 0.0625 M succinic acid, anaerobic, 5 hours, vs control without succinic acid
Protocol: After isolating total RNA from the cultured cells by using RNeasy midi kit (Qiagen), a transciptome was analyzed by using a Corynebacterium glutamicum ATCC 13032, 3×20K chip microarray (MYcroarray.com) according the protocol of the same manufacturer. 6134 unique probes are immobilized on the chip, where each of the probes is a three-times repeat.

[4] = 0.25 M succinic acid, anaerobic, S003 strain

## O=C(O)CCC(=O)O [succinic acid]
[1]; Corynebacterium glutamicum, read-out: IC50 value of the glucose uptake rate
  IC50: 70.8 mg/mL (≈ 600 mM)
[1]; S003/pGEX4-NCgl0275 strain vs control
  increase of IC50 compared to the control group: about 5.45 fold
[2]; 0.0625 M succinic acid, after 15 hours
  glucose uptake rate compared with control group: the same
[2]; 0.0625 M succinic acid, within the first 5 hours
  glucose uptake: suppressed
[2]; [4]
  decrease of glucose uptake rate: about 66.4%
  succinic acid production: almost not produced
[2]; read-out: IC50 value of the glucose uptake rate
  IC50: 13 mg/mL (≈ 110 mM)
[2]; read-out: IC50 value of the succinic acid production
  IC50: 100 mM and 11800 µg/mL
[3]
  Fold of reduction of expression, Ncgl0275 (whiB4): 1.56 fold
  Fold of reduction of expression, Ncgl0368: 1.60 fold
  Fold of reduction of expression, Ncgl1524 (tpi/tpiA): 1.700 fold
  Fold of reduction of expression, Ncgl1853 (nrdR): 4.24 fold
  Fold of reduction of expression, Ncgl1855 (lexA): 2.44 fold
  Fold of reduction of expression, Ncgl2297 (mdh): 1.700 fold
  Fold of reduction of expression, Ncgl2359: 1.52 fold
  Fold of reduction of expression, Ncgl2404: 1.73 fold
  Fold of reduction of expression, Ncgl2425: 1.74 fold
  Fold of reduction of expression, Ncgl2673 (fda): 1.820 fold
  Fold of reduction of expression, Ncgl2877: 1.57 fold
  Fold of reduction of expression, Ncgl2988 (parB): 1.91 fold
  reduction of expression of nine expected transcription regulator genes (NCgl1853, NCgl1855, NCgl0368, NCgl0275, NCgl2359, NCgl2404, NCgl2425, NCgl2988, NCgl2877): ≥ 1.5 fold
